Assay results reported in article PMC11568214, “The impact of 9-azaglycophymine and phenylguanidine derivatives on the proliferation of various breast cancer cell lines in vitro and in vivo” (Scientific Reports, 2024).
Values joined by “and” are separate entries in the source; they are usually repeats but may differ in a detail not shown here. Equal entries are not always repeated. “Also recorded” adds a separate entry of the source. Where two headings read alike, the source gives them in different places.

How the values were obtained:
[1] = tested on: MCF-7, MDA-MB-468, BT-474 and HCC1937 breast cancer cells; test: Fast screening / CV cell viability, breast cancer cell line panel; format: cell-based, human; design: reduction of cell viability: concentration or dose not given beside the values
Method: For initial testing of the cytotoxic effect of the available glycophymine compounds (Table S2), cells were treated with compound in three concentrations: 1, 10 and 50 µM. Cells were seeded in 96-well plates and allowed to adhere overnight. Then they were treated for 72 h under standard culture conditions. […] For IC50 determination, the compounds were tested at seven concentrations (0.78, 1.56, 3.13, 6.25, 12.5, 25 and 50 µM). Subsequently, the cell viability was determined by using the crystal violet (CV) assay. Moreover, the selected compounds were tested against the mouse breast cancer cell line 4T1 (TNBC) as well. The compounds were prepared initially to obtain a stock solution of 20 mM in DMSO. Later, the working solutions were prepared by mixing the required amount of DMSO stock with the optimal medium for each cell line. The DMSO concentration in the final solution was always maintained lower than 0.5% to avoid any DMSO-derived side effects.
For CV assays, after 72 h treatment, the treatment medium was discarded from the 96-well plates, and the cells were washed using 50 µL of PBS. Cells were fixed by adding 50 µL of 4% (v/v) paraformaldehyde (PFA) in PBS for 15 min at room temperature (RT). Afterwards, PFA was discarded, and the plates were dried for 15 min at RT. 50 µL of CV working solution (0.1% w/v CV in PBS) were added to the wells, followed by 15 min incubation at RT. Subsequently, the CV solution was discarded, and the plates were washed using aqua bidest. (ddH2O) to remove any remaining CV solution. The plates were left to dry overnight at RT, and then 50 µL of 33% (v/v) acetic acid in ddH2O were added to each well. Finally, the absorbance was measured at 570 nm by using a SpectraMax M5 plate reader (Molecular Devices, California, USA) and at 670 nm as background wavelength. […] Additionally, gefitinib, an approved EGFR inhibitor of the quinazoline family, was tested as anti-proliferative positive control. The data represent the mean ± standard deviation derived from three independent biological replicates. Dose–response curves were generated by four-parametric non-linear regression analysis using the GraphPad Prism software (version: 10.1, San Diego, CA, USA). Based on that, IC50 values and standard deviations were calculated for each replicate individually.

BT-474 = test: NO production, DAF-FM staining, flow cytometry; format: cell-based, human; design: key: ↑: induction; ↓: inhibition; ↔: no effect; settings: BT-474, IC50 for 72 h
Method: (§1) Afterwards, the medium was discarded and the cells were stained with DAF-FM (5 µM) in RPMI1640 with 10% (v/v) FCS for 1 h at 37 °C. The stain was completed by additional incubation for 15 min with serum-free medium. The cells were then detached, re-suspended in PBS and analyzed by flow cytometry.

HCC1937 = test: NO production, DAF-FM staining, flow cytometry; format: cell-based, human; design: key: ↑: induction; ↓: inhibition; ↔: no effect; settings: HCC1937, IC50 for 72 h
Method: as §1

MCF-7 = test: NO production, DAF-FM staining, flow cytometry; format: cell-based, human; design: key: ↑: induction; ↓: inhibition; ↔: no effect; settings: MCF-7, IC50 for 72 h
Method: as §1

MDA-MB-468 = test: NO production, DAF-FM staining, flow cytometry; format: cell-based, human; design: key: ↑: induction; ↓: inhibition; ↔: no effect; settings: MDA-MB-468, IC50 for 72 h
Method: as §1

4T1 [2] = test: NO production, DAF-FM staining, flow cytometry; format: cell-based, mouse; design: key: ↑: induction; ↓: inhibition; ↔: no effect; settings: 4T1, IC50 for 72 h
Method: as §1

4T1 [3] = test: Apoptosis analysis, AnnV/PI staining, flow cytometry; format: cell-based, mouse; settings: 4T1, IC50 for 72 h; control cells 31%
Method: Cells were seeded in 6-well plates and incubated for 24 h under standard culture conditions. […] For apoptosis analyses, the cell suspension was centrifuged for 3 min at 800 rpm, and the cell pellet was stained by using 100 µL of AnnV/PI working solution (5 µL of AnnV, 2 µL of PI in 100 µL of PBS) for 15 min at RT and protected from light. The staining was terminated by the addition of 900 µL of annexin binding buffer. Finally, all samples were analyzed by using flow cytometry (FACSAria III, BD Biosciences, New Jersey, USA).

[4] = Urine analysis with Multistix urine test stripes in the 4T1 in vivo study; design: species or system BALB/c mice; key to Glucose (urine) / Blood (urine): -: marker was not detectable in the respective urine sample; +: marker was detected
Method: On day 6, the mice were assigned to the study groups using a stratified randomization approach, ensuring that the mean tumor volumes were as similar as possible across all groups. […] The vehicle was 4% (v/v) DMSO in PBS, and the administration route was intraperitoneal (i.p.). The animals were treated daily on days 6–10 (starting from the day when tumors became palpable), 13–17 and day 20. Animals were visually examined daily, and urine samples were collected on the first and last day of treatment and analyzed by Multistix urine test stripes (Siemens Healthineers, Erlangen, Germany). On day 21 of the experiment, the mice were sacrificed using cervical dislocation. Following the sacrifice, the tumor diameters were measured using a caliper. The tumor volume (V) was then calculated using the formula V = L*W^2*0.52[36], where L represents the longest diameter and W the shortest diameter of the tumor.

With `O=c1[nH]c(Nc2ccc([N+](=O)[O-])cc2)nc2ccccc12` [Compound 19, 4′-nitro-9-aza-glycophymine] the IC50 ([1]; 72 h, CV assay, across cell lines, read-out: IC50 values against the breast cancer cell lines) was 4 to 6 µM, the “concentration below which active in cytotoxicity screening” value ([1]; 72 h, initial screening) was “below 10 µM” and the “anti-proliferative / cytotoxic effect” value ([1]; 72 h, screening at 1, 10 and 50 µM) was “significantly reduced cell proliferation”. The IC50 ([1]; Homo sapiens, 72 h, CV assay, across cell lines, read-out: IC50 values against the breast cancer cell lines) was about 4 µM, the IC50 ([1]; Homo sapiens, 72 h, read-out: IC50 values (National Cancer Institute guideline criterion)) was under 30 µg/mL and the “reduction of cell viability” value ([1]; after 72 h of treatment, initial screening) was at least 50%. For the same compound, the NO (BT-474) was “↑”, the NO (HCC1937) was “↑” and the NO (MCF-7) was “↑”. For the same compound, the NO (MDA-MB-468) was “↔”, the NO (4T1 [2]) was “↑” and the “percentage of apoptotic cells” value (4T1 [3]) was 69%. The “Bilirubin (urine)” value ([4]; 5 mg/kg, Day 6, three mice) was “small”, the “Blood (urine)” value ([4]; 5 mg/kg, Day 6, three mice) was “-” and the “Ketones (urine)” value ([4]; 5 mg/kg, Day 6, three mice) was 10 mg/dL. The “Leucocytes (urine)” value ([4]; 5 mg/kg, Day 6, three mice) was 25 cells/µL, the “Specific gravity (urine)” value ([4]; 5 mg/kg, Day 6, three mice) was 1.025 and 1.000 and 1.030 and the “pH (urine)” value ([4]; 5 mg/kg, Day 6, three mice) was 6 and 5. For the same compound, the “Bilirubin (urine)” value ([4]; 5 mg/kg, Day 20, three mice) was “small”, the “Blood (urine)” value ([4]; 5 mg/kg, Day 20, three mice) was “-” and the “Glucose (urine)” value ([4]; 5 mg/kg, Day 20, three mice) was “-”. For the same compound, the “Ketones (urine)” value ([4]; 5 mg/kg, Day 20, three mice) was 10 mg/dL, the “Leucocytes (urine)” value ([4]; 5 mg/kg, Day 20, three mice) was 25 cells/µL and the “Proteins (urine)” value ([4]; 5 mg/kg, Day 20, three mice) was 100 mg/dL. The “Specific gravity (urine)” value ([4]; 5 mg/kg, Day 20, three mice) was 1.030 and 1.025, the “pH (urine)” value ([4]; 5 mg/kg, Day 20, three mice) was 6 and the “Bilirubin (urine)” value ([4]; 20 mg/kg, Day 6, three mice) was “small”. For the same compound, the “Blood (urine)” value ([4]; 20 mg/kg, Day 6, three mice) was “-”, the “Ketones (urine)” value ([4]; 20 mg/kg, Day 6, three mice) was 10 mg/dL and the “Leucocytes (urine)” value ([4]; 20 mg/kg, Day 6, three mice) was 25 cells/µL. For the same compound, the “Proteins (urine)” value ([4]; 20 mg/kg, Day 6, three mice) was 30 mg/dL, the “Specific gravity (urine)” value ([4]; 20 mg/kg, Day 6, three mice) was 1.025 and 1.030 and the “Uroglobin (urine)” value ([4]; 20 mg/kg, Day 6, three mice) was 4 mg/dL. For the same compound, the “pH (urine)” value ([4]; 20 mg/kg, Day 6, three mice) was 6 and 5, the “Bilirubin (urine)” value ([4]; 20 mg/kg, Day 20, three mice) was “small; also recorded: moderate” and the “Blood (urine)” value ([4]; 20 mg/kg, Day 20, three mice) was “-”. The “Ketones (urine)” value ([4]; 20 mg/kg, Day 20, three mice) was 10 mg/dL and 5 mg/dL, the “Specific gravity (urine)” value ([4]; 20 mg/kg, Day 20, three mice) was 1.030 and 1.025 and the “Uroglobin (urine)” value ([4]; 20 mg/kg, Day 20, three mice) was 4 mg/dL and 8 mg/dL. For the same compound, the “pH (urine)” value ([4]; 20 mg/kg, Day 20, three mice) was 5 and 6.
